Target: association reaction between recombinantly prepared mouse PrP (amino acids 23-231) and PrP-Sc aggregates prepared from the brain tissue of CJD patients (UniProt P04156+P04925)
Format: binding, human PrP-Sc (CJD patients); mouse PrP
Conditions: for influence on association of fluorescence-labeled recombinant PrP to prion aggregates: SIFT, 20 mM potassium phosphate buffer, pH 6.0, 0.1% Nonidet-P40

Compound	influence on association of fluorescence-labeled recombinant PrP to prion aggregates	number of bins per sector in two-dimensional histograms of the fluorescence intensity (FIG. 4, two-dimensional SIFT evaluation by sectors)
CCCCCCCC/C=C\CCCCCCCC(=O)OC[C@H](COP(=O)(O)OCCN)OC(=O)CCCCCCC/C=C\CCCCCCCC [DOPE, dioleyl-L-phosphatidylethanolamine]	no influence on aggregation was found	
CCCCCCCC/C=C\CCCCCCCCOCC(C[N+](C)(C)CCNC(=O)C(CCCNCCCN)NCCCN)OCCCCCCCC/C=C\CCCCCCCC.O=C([O-])C(F)(F)F (stereo not drawn) [DOSPA, 2,3-dioleyloxy-N-[2-(sperminecarboxamido)ethyl]-N,N-dimethyl-1-propanaminium trifluoroacetate]	inhibits the association of fluorescence-labeled recombinant PrP to prion aggregates at low micromolar concentrations	number of bins is decreased in sectors 1 to 9

From patent US20050147989A1 (priority 2003, published 2005)
